Data reported in DBAASP.
Converted amounts (≈) assume the structure as drawn. “And” between values parts separate entries of the source, which are not always exact repeats. Identical values can stand only once.

Experiments:
Assay in all cases: ≥ marks a high value that may be exact or a test limit, other limits are often not marked, values filed in µg/mL are converted to µM
[1] = test system: Escherichia coli ATCC 25922
[2] = test system: Staphylococcus aureus Sa1390
[3] = test system: Aspergillus terreus GIM 3.34
[4] = test system: Sphingobacterium siyangense
[5] = test system: Salmonella enterica subsp. enterica serovar Typhi
[6] = test system: Staphylococcus aureus 08A875
[7] = test system: Salmonella typhimurium CMCC 50013
Serratia marcescens MA = test system: Serratia marcescens MA
[8] = test system: Pseudomonas aeruginosa ATCC 27853
[9] = test system: Staphylococcus aureus 08032706
Escherichia coli Ec513 = test system: Escherichia coli Ec513
[10] = test system: Salmonella enterica subsp. enterica serovar Choleraesuis CMCC 50020
[11] = test system: Staphylococcus epidermidis ATCC 12228
[12] = test system: Acinetobacter baumannii Ab5753
[13] = test system: Staphylococcus aureus 08031002
Escherichia coli K-12 = test system: Escherichia coli K-12
Bacillus pumilus = test system: Bacillus pumilus
[14] = test system: Staphylococcus aureus ATCC 25923
Enterococcus faecium = test system: Enterococcus faecium
[15] = test system: Staphylococcus aureus 08031013
[16] = test system: Acinetobacter baumannii Ab1408
Chaetomium globosum = test system: Chaetomium globosum
[17] = test system: Staphylococcus aureus 08A865
[18] = test system: Staphylococcus aureus ATCC 2592
Bacillus subtilis = test system: Bacillus subtilis
Bacillus cereus = test system: Bacillus cereus
[19] = test system: Acinetobacter baumannii Ab5755
[20] = test system: Salmonella enterica subsp. enterica serovar Enteritidis CMCC 50041
Serratia marcescens SA = test system: Serratia marcescens SA
[21] = test system: Saccharibacillus kuerlensis
Pseudomonas luteola = test system: Pseudomonas luteola
[22] = test system: Staphylococcus aureus 08032712
[23] = test system: Candida albicans ATCC 2002
Escherichia coli O78 = test system: Escherichia coli O78
Aspergillus nidulans = test system: Aspergillus nidulans
[24] = test system: Pseudomonas aeruginosa Pa4216
Pseudomonas aeruginosa = test system: Pseudomonas aeruginosa
Escherichia coli K88 = test system: Escherichia coli K88
[25] = test system: Staphylococcus aureus 08032810
[26] = test system: Acinetobacter calcoaceticus
[27] = test system: Pseudomonas aeruginosa Pa1409
Escherichia coli = test system: Escherichia coli

CC[C@H](C)[C@H](NC(=O)[C@@H](NC(=O)[C@H](CCCN=C(N)N)NC(=O)[C@@H]1CCCN1C(=O)[C@H](CCCCN)NC(=O)[C@H](CCCCN)NC(=O)[C@H](Cc1ccccc1)NC(=O)[C@H](Cc1ccccc1)NC(=O)[C@H](CCC(=O)O)NC(=O)[C@H](CCCCN)NC(=O)[C@H](C)NC(=O)[C@H](CCCN=C(N)N)NC(=O)[C@H](CCCCN)NC(=O)[C@H](CCCCN)NC(=O)[C@@H](NC(=O)[C@H](CO)NC(=O)[C@H](CCCCN)NC(=O)[C@H](CCCCN)NC(=O)[C@H](CC(C)C)NC(=O)[C@H](CCCCN)NC(=O)[C@H](CCCN=C(N)N)NC(=O)[C@H](Cc1ccccc1)NC(=O)[C@H](Cc1ccccc1)NC(=O)[C@@H](N)CCCCN)C(C)C)C(C)C)C(=O)NCC(=O)N[C@H](C(=O)N[C@@H](CO)C(=O)N[C@H](C(=O)N1CCC[C@H]1C(=O)N[C@@H](Cc1ccccc1)C(=O)O)[C@@H](C)CC)C(C)C [KFFRKLKKSVKKRAKEFFKKPRVIGVSIPF]
MIC [1]: 0.632 µM (≈ 2.3 µg/mL)
MIC [2]: ≥ 35.2 µM
MIC [3]: 5.14 µM (≈ 18.7 µg/mL)
MIC [4]: 2.58 µM (≈ 9.4 µg/mL)
MIC [5]: 0.33 µM (≈ 1.2 µg/mL)
MIC [6]: 20.6 µM (≈ 75 µg/mL)
MIC [7]: 1.1 µM (≈ 4 µg/mL)
MIC (Serratia marcescens MA): ≥ 110 µM
MIC [8]: 0.33 µM and > 0.165 µM
MIC [9]: 27.5 µM (≈ 100 µg/mL)
MIC (Escherichia coli Ec513): 2.2 µM (≈ 8 µg/mL)
MIC [10]: 0.55 µM (≈ 2 µg/mL)
MIC [11]: 2.2 µM (≈ 8 µg/mL)
MIC [12]: 4.4 µM (≈ 16 µg/mL)
MIC [13]: 27.5 µM (≈ 100 µg/mL)
MIC (Escherichia coli K-12): 0.275 µM (≈ 1 µg/mL)
MIC (Bacillus pumilus): 2.58 µM (≈ 9.4 µg/mL)
MIC [14]: 1.1 µM (≈ 4 µg/mL)
MIC (Enterococcus faecium): ≥ 41.2 µM
MIC [15]: 27.5 µM (≈ 100 µg/mL)
MIC [16]: 4.4 µM (≈ 16 µg/mL)
MIC (Chaetomium globosum): 10.3 µM (≈ 37.5 µg/mL)
MIC [17]: ≥ 110 µM
MIC [18]: 1.29 µM and 0.66 µM
MIC (Bacillus subtilis): 2.58 µM (≈ 9.4 µg/mL)
MIC (Bacillus cereus): 0.33 µM (≈ 1.2 µg/mL)
MIC [19]: 1.1 µM (≈ 4 µg/mL)
MIC [20]: 1.1 µM (≈ 4 µg/mL)
MIC (Serratia marcescens SA): ≥ 110 µM
MIC [21]: 1.29 µM (≈ 4.7 µg/mL)
MIC (Pseudomonas luteola): 0.33 µM (≈ 1.2 µg/mL)
MIC [22]: 27.5 µM (≈ 100 µg/mL)
MIC [23]: 1.29 µM and 0.66 µM
MIC (Escherichia coli O78): 4.4 µM (≈ 16 µg/mL)
MIC (Aspergillus nidulans): 5.14 µM (≈ 18.7 µg/mL)
MIC [24]: 1.1 µM (≈ 4 µg/mL)
MIC (Pseudomonas aeruginosa): 3.64 µM (≈ 13.3 µg/mL)
MIC (Escherichia coli K88): 1.1 µM (≈ 4 µg/mL)
MIC [25]: 27.5 µM (≈ 100 µg/mL)
MIC [26]: 0.632 µM (≈ 2.3 µg/mL)
MIC [27]: 2.2 µM (≈ 8 µg/mL)
MIC (Escherichia coli): 0.323 µM (≈ 1.17 µg/mL)
